Assay results: patent publication EP1709964A2, “A method of cosmetic depigmentation care by applying at least one aurone” (ENGELHARD LYON, priority 2005, dated 2006)
Like-named read-outs stand apart in the source and are kept apart here.

Biological target: T1, Human tyrosinase (Homo sapiens, UniProt P14679)
T1 construct: Normal human melanocytes (originating from abdominal plasty) are sown in a 24-well plate; endogenous in cells; host or cells: normal human melanocytes from abdominal plasty; donors of light, brown and black phototype
T1 sequence (P14679 19-529): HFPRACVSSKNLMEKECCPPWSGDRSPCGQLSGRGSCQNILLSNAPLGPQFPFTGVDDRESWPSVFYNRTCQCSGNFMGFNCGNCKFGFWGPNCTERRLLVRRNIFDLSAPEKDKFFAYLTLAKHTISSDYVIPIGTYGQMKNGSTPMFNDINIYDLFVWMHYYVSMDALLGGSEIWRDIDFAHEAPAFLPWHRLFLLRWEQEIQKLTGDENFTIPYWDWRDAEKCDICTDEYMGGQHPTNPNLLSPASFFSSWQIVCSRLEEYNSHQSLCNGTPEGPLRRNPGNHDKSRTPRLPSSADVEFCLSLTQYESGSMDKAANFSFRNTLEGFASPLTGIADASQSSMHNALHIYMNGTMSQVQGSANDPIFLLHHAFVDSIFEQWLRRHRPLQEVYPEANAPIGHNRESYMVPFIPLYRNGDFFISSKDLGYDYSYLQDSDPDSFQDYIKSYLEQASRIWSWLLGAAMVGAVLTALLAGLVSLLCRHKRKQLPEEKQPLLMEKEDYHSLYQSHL
Assay: Inhibition of human tyrosinase in a monolayer after 24 h application of the actives on normal human melanocytes (MBTH/L-Dopa, OD 490 nm/protein)
Format: cell-based
Conditions: for inhibition at 100 µM / inhibition at 10 µM: read-out: Inhibition of human tyrosinase after application on normal human melanocytes, percentage inhibition; for Inhibition (%): model of Example 15
Procedure: Normal human melanocytes (originating from abdominal plasty) are sown in a 24-well plate at the rate of 80,000 cells per well. They are cultivated up to confluence and the actives are applied for 24 hours in the culture media. After 24 hours, the media are removed and the melanocytes are picked up by mechanical action. An extraction is made by heat shock and the supernatants are then recovered and then incubated with MBTH (Sigma) and L-Dopa (Sigma).
The compound obtained in Example 9b was tested on melanocytes originating from various donors but of light phototypes according to the method described in Example 15. […] Table 6 : Inhibition of tyrosinase by compound 9b on 4 different donors.
The compound obtained in Example 9b is tested on cultures of melanocytes originating from 2 donors of brown phototypes and from one donor of negroid phototype. The method applied is that described in Example 15.
A study is made with molecules known in the literature for their depigmenting activity. These molecules are applied to the model described in Example 15 so as to compare their efficiency with respect to the aurones described above.

inhibition at 100 µM (10^-4M, 24 hours) [%]	inhibition at 10 µM (10^-5M, 24 hours) [%]	SMILES	other results
13.8	0	CCc1ccc(/C=C2\Oc3cc(O)cc(O)c3C2=O)s1 [Example 7r, (Z)-4,6-Dihydroxy-2-[(5-ethylthiophene)methylene]benzofuran-3(2H)-one]	
16.4	7	Cc1ccc(/C=C2\Oc3cc(O)cc(O)c3C2=O)s1 [Example 7q, (Z)-4,6-Dihydroxy-2-[(5-methylthiophene)methylene]benzofuran-3(2H)-one]	
0	31.9	CC(C)c1ccc(/C=C2\Oc3cc(O)cc(O)c3C2=O)cc1 [Example 7i]	
35.2	15.3	O=C1/C(=C/c2cccs2)Oc2cc(O)cc(O)c21 [Example 7p, (Z)-4,6-Dihydroxy-2-[(thiophene)methylene]benzofuran-3(2H)-one]	
23.6	6.4	O=C1/C(=C/c2ccco2)Oc2cc(O)cc(O)c21 [Example 7m, (Z)-4,6-Dihydroxy-2-[(furan)methylene]benzofuran-3(2H)-one]	
5.43	26.9	CCCc1ccc(/C=C2\Oc3cc(O)cc(O)c3C2=O)cc1 [Example 7h]	
12.8	4.32	O=C1/C(=C/c2ccccc2O)Oc2cc(O)cc(O)c21 [Example 9c]	
26.4	0	Cc1cc(C)c(/C=C2\Oc3cc(O)cc(O)c3C2=O)[nH]1 [Example 7t, (Z)-4,6-Dihydroxy-2-[(3,5-dimethylpyrrole)methylene]benzofuran-3(2H)-one]	
0	4.83	O=C1/C(=C/c2ccc(S(=O)(=O)O)cc2)Oc2cc(O)cc(O)c21 [Example 7e]	
5.25	19.9	CCOc1ccc(/C=C2\Oc3cc(O)cc(O)c3C2=O)cc1 [Example 9a, (Z)-4,6-Dihydroxy-2-(4'-ethoxybenzylidene)benzofuran-3(2H)-one]	
28.5	13.4	CCc1ccc(/C=C2\Oc3cc(O)cc(O)c3C2=O)o1 [Example 7n, (Z)-4,6-Dihydroxy-2-[(5-ethylfuran)methylene]benzofuran-3(2H)-one]	
0	6.1	CCc1ccccc1/C=C1\Oc2cc(O)cc(O)c2C1=O [Example 7l]	
3.92	20.2	COc1cc(/C=C2\Oc3cc(O)cc(O)c3C2=O)ccc1O [Example 9d]	
13.6	4.5	Cc1cc(/C=C2\Oc3cc(O)cc(O)c3C2=O)oc1C [Example 7o, (Z)-4,6-Dihydroxy-2-[(4,5-dimethylfuran)methylene]benzofuran-3(2H)-one]	
0	25.1	CC(C)(C)c1ccc(/C=C2\Oc3cc(O)cc(O)c3C2=O)cc1 [Example 7k]	

More lines, now with the values behind:

SMILES	inhibition at 100 µM (10^-4M, 24 hours) [%]	inhibition at 10 µM (10^-5M, 24 hours) [%]	other results
O=c1cc(-c2ccc(O)cc2)oc2cc(O)cc(O)c12 [Apigenin, reference compound]	-59.1 ± 23	-40.8 ± 7.68	
CCc1ccccc1/C=C1\Oc2cc(O)ccc2C1=O [Example 3b, (Z)-2-(2'-Ethyl)Benzylidene-6-Hydroxybenzofuran-3(2H)-one]	0	0	
COc1cc(OC)c2c(c1)O/C(=C\c1ccc(S(=O)(=O)O)cc1S(=O)(=O)O)C2=O [Example 5f, (Z)-4,6-dimethoxy-2-(2',4'-disulfonatebenzylidene)benzofuran-3(2H)-one]	9.36	2.88	
COc1cc(OC)c2c(c1)O/C(=C\c1[nH]c(C)cc1C)C2=O [Example 5t, (Z)-4,6-Dimethoxy-2-[(3,5-dimethylpyrrole)methylene]benzofuran-3(2H)-one]	5.1	0	
COc1ccc(/C=C2\Oc3cc(O)cc(O)c3C2=O)cc1 [Example 9, (Z)-4,6-Dihydroxy-2-(4-methoxybenzylidene)benzofuran-3(2H)-one]	10.7	14.1	
COc1cc(OC)c2c(c1)O/C(=C\c1ccc(C)s1)C2=O [Example 5q, (Z)-4,6-Dimethoxy-2-[(5-methylthiophene)methylene]benzofuran-3(2H)-one]	4.8	0	
COc1cc(OC)c2c(c1)O/C(=C\c1ccc(S(=O)(=O)O)cc1)C2=O [Example 5e, (Z)-4,6-dimethoxy-2-(4'-sulfonatebenzylidene)benzofuran-3(2H)-one]	0	1.44	
COc1cc(OC)c2c(c1)O/C(=C\c1cccs1)C2=O [Example 5p, (Z)-4,6-Dimethoxy-2-[(thiophene)methylene]benzofuran-3(2H)-one]	31.3	6.4	
COc1cc(OC)c2c(c1)O/C(=C\c1cc(C)c(C)o1)C2=O [Example 5o, (Z)-4,6-Dimethoxy-2-[(4,5-dimethylfuran)methylene]benzofuran-3(2H)-one]	23.2	12.1	
CCc1ccc(/C=C2\Oc3cc(OC)cc(OC)c3C2=O)o1 [Example 5n, (Z)-4,6-Dimethoxy-2-[(5-ethylfuran)methylene]benzofuran-3(2H)-one]	7.8	0	
CCc1ccc(/C=C2\Oc3cc(OC)cc(OC)c3C2=O)s1 [Example 5r, (Z)-4,6-Dimethoxy-2-[(5-ethylthiophene)methylene]benzofuran-3(2H)-one]	11.9	2.1	
COc1cc(OC)c2c(c1)O/C(=C\c1ccco1)C2=O [Example 5m, (Z)-4,6-Dimethoxy-2-[(furan)methylene]benzofuran-3(2H)-one]	19.5	6.4	
O=c1cc(-c2ccccc2)oc2cc(O)cc(O)c12 [Chrysin, reference compound]		-6.1 ± 22.9	
CCc1ccc(/C=C2\Oc3cc(O)ccc3C2=O)cc1 [Example 3a, (Z)-2-(4'-Ethyl)Benzylidene-6-Hydroxybenzofuran-3(2H)-one]	0	23.9	
COc1cc(OC)c2c(c1)O/C(=C\c1ccc[nH]1)C2=O [Example 5s, (Z)-4,6-Dimethoxy-2-[(pyrrole)methylene]benzofuran-3(2H)-one]			inhibition at 10 µM: 0%; inhibition at 100 µM: 13.7%
O=C1O[C@H]([C@@H](O)CO)C(O)=C1O [VitC, Vitamin C, reference compound]			Inhibition (%) (0.03%): -5.68%; Inhibition (%) (0.3%): 49.28%; Inhibition (%) (3%): 97.77%
O=C1/C(=C/c2ccccc2)Oc2cc(O)cc(O)c21 [Example 7, (Z)-2-Benzylidene-(4,6-dihydroxy) benzofuran-3(2H)-one]	3.37	34.9	Inhibition of human tyrosinase after application on normal human melanocytes, percentage inhibition (10^-4M, 24 hours): 3.37 ± 4.8%; Inhibition of human tyrosinase after application on normal human melanocytes, percentage inhibition (10^-5M, 24 hours): 34.85 ± 3.04%
O=C1/C(=C/c2ccc[nH]2)Oc2cc(O)cc(O)c21 [Example 7s, (Z)-4,6-Dihydroxy-2-[(pyrrole)methylene]benzofuran-3(2H)-one]			inhibition at 10 µM: 9.1%; inhibition at 100 µM: 22.8%
